The values below come from US9561228B2 (Celgene Avilomics Research, Inc., priority 2013, dated 2017).

SMILES strings stand for the structures. Where only a bound is given, the exact number is not on record here.

For experiment [1], the system named is ERK1/2 phosphorylation of p90RSK in HCT116 cells. The experiment can be described thus: Detection of total and phospho-RSK by MSD ELISA (HCT116). It is filed as cell-based. The note with it: Homo sapiens, HCT-116, read-out: ERK1/ERK2 PRSK HCT116 EC50. An outline of the steps: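 HCT116 cells treated with compound in RPMI/10% FBS for 2 h at 37° C, then lysed. Phospho-RSK (Ser380) and total RSK in lysates measured by MSD sandwich electrochemiluminescence ELISA as a readout of ERK1/2 activity.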
(In general: In an ELISA, binding on a coated surface is turned into a signal by an enzyme label.)

The subject of experiment [2] is A375 cells (malignant melanoma). The experiment can be described thus: Inhibition of cancer cell proliferation, A375 (CellTiterGlo, 72 hours). Particulars: Homo sapiens, A-375. It is filed as cell-based. In a few lines: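 A375 melanoma cells, 3000/well, exposed 72 h at 37 °C to compound in 3-fold serial dilutions (solution added as 2× stock starting at 5,000 nM in serum-free DMEM). CellTiterGlo luminescence converted to cell number via standard curve; % inhibition vs untreated control, GI50 from curve fit.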
(In general: ATP-based viability assays read luminescence as a measure of living cells.)

In the next experiment the target is T1, MEK1 activated ERK1 (Homo sapiens, UniProt P27361).
T1 construct: purchased Millipore (Billerica, Mass.) 14-439-K
T1 sequence (P27361 whole entry): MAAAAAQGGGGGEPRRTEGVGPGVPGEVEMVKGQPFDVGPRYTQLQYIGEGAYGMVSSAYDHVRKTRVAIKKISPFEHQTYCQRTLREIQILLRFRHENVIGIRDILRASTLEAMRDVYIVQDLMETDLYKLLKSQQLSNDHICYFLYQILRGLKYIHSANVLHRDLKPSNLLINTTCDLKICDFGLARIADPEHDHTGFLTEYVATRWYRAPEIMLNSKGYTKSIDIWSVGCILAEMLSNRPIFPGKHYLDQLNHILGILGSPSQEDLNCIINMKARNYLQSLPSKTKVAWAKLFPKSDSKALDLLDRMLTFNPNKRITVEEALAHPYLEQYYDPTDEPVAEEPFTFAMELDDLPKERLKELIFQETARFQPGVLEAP
The experiment can be described thus: Omnia continuous-read kinase assay for potency against MEK1 activated ERK1. It is filed as biochemical. The note with it: MEK1 activated ERK1, ATP at KM; read-out: ERK1 Omnia WT ATP KM IC50. An outline of the steps: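 Apparent IC50 came from initial reaction slopes (RFU vs time) plotted against log inhibitor with a variable-slope fit. Reactions were started with ERK1 (4 nM final) added to 50 μM ATP, roughly at its appKM, and 10 μM Sox-conjugated ST17 peptide in 20 mM Tris pH 7.5, 5 mM MgCl2. Fluorescence was monitored every 71 seconds.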

For the compound `C=CC(=O)Nc1cc(C)ccc1Nc1nc(Nc2cc(OC)nc(N3CCN(C(C)=O)CC3)c2)ncc1Cl` [Compound I-296, N-(2-((2-((2-(4-acetylpiperazin-1-yl)-6-methoxypyridin-4-yl)amino)-5-chloropyrimidin-4-yl)amino)-5-methylphenyl)acrylamide], in experiment [1], the EC50 is below 100 nM. The GI50 – broadly, the concentration at which growth is held to half of that of the control – in experiment [2] is below 100 nM.

Regarding `C=CC(=O)Nc1ccccc1Nc1nc(Nc2ccnc(F)c2)ncc1C(F)(F)F` [Compound I-287, N-(2-((2-((2-Fluoropyridin-4-yl)amino)-5-(trifluoromethyl)pyrimidin-4-yl)amino)phenyl)acrylamide], in experiment [1], the EC50 was in the range of 101 to 500 nM. Besides, on MEK1 activated ERK1, the IC50 (as a rule, the concentration that gives 50% inhibition) is 101 to 500 nM.

Regarding `C=CC(=O)Nc1ccccc1Nc1nc(Nc2cc(NCCOC)nc(OC)c2)ncc1C(F)(F)F` [Compound I-286, N-(2-((2-((2-Methoxy-6-((2-methoxyethyl)amino)pyridin-4-yl)amino)-5-(trifluoromethyl)pyrimidin-4-yl)amino)phenyl)acrylamide], in experiment [1], the EC50 was below 100 nM. Besides, the GI50 in experiment [2] was below 100 nM.

Regarding `C=CC(=O)Nc1cc(C)ccc1Nc1nc(Nc2cc(OC)nc(N3CCN(CC)CC3)c2)ncc1C(F)(F)F` [Compound I-89, N-(2-((2-((2-(4-Ethylpiperazin-1-yl)-6-methoxypyridin-4-yl)amino)-5-(trifluoromethyl)pyrimidin-4-yl)amino)-5-methylphenyl)acrylamide], the IC50 at MEK1 activated ERK1 fell in the range of 101 to 500 nM. The compound also displayed a GI50 in experiment [2] below 100 nM.

`C=CC(=O)Nc1ccccc1Nc1nc(N[C@H]2CCN(S(C)(=O)=O)C2)ncc1C(F)(F)F` [Compound I-58, (S)—N-(2-((2-((1-(Methylsulfonyl)pyrrolidin-3-yl)amino)-5-(trifluoromethyl)pyrimidin-4-yl)amino)phenyl)acrylamide]: at MEK1 activated ERK1, the IC50 lay in the range of 101 to 500 nM. This compound displayed a GI50 in experiment [2] of 101 to 500 nM.

Turning to `C=CC(=O)Nc1ccccc1Nc1nc(Nc2cc(OC)nc(OCCOC)c2)ncc1C(F)(F)F` [Compound I-283, N-(2-((2-((2-Methoxy-6-(2-methoxyethoxyl)pyridin-4-yl)amino)-5-(trifluoromethyl)pyrimidin-4-yl)amino)phenyl)acrylamide], in experiment [1], the EC50 was below 100 nM. The compound further had a GI50 in experiment [2] below 100 nM.

For the compound `C=CC(=O)Nc1cc(OC)ccc1Nc1nc(Nc2cc(OC)nc(N3CCN(C(C)=O)CC3)c2)ncc1C(F)(F)F` [Compound I-91, N-(2-((2-((2-(4-Acetylpiperazin-1-yl)-6-methoxypyridin-4-yl)amino)-5-(trifluoromethyl)pyrimidin-4-yl)amino)-5-methoxyphenyl)acrylamide], the EC50 in experiment [1] is below 100 nM. This compound also registered a GI50 in experiment [2] below 100 nM.

On to `C=CC(=O)Nc1cc(OC)ccc1Nc1nc(Nc2cc(OC)ncc2C)ncc1Cl` [Compound I-242, N-(2-((5-chloro-2-((2-methoxy-5-methylpyridin-4-yl)amino)pyrimidin-4-yl)amino)-5-methoxyphenyl)acrylamide], for which the EC50 in experiment [1] is above 1000 nM. In experiment [2], this compound showed a GI50 below 100 nM.

As to `C=CC(=O)Nc1ccccc1Nc1nc(N[C@H]2CCN(C(C)=O)C2)ncc1C(F)(F)F` [Compound I-56, (S)—N-(2-((2-((1-Acetylpyrrolidin-3-yl)amino)-5-(trifluoromethyl)pyrimidin-4-yl)amino)phenyl)acrylamide], the concentration for half-maximal inhibition (IC50) at MEK1 activated ERK1 is 101 to 500 nM. In addition, the concentration for 50% growth inhibition (GI50) in experiment [2] was 101 to 500 nM.

As to `C=CC(=O)Nc1ccccc1Nc1nc(Nc2cc(F)ccc2C)ncc1C(F)(F)F` [Compound I-285, N-(2-((2-((5-Fluoro-2-methylphenyl)amino)-5-(trifluoromethyl)pyrimidin-4-yl)amino)phenyl)acrylamide], in experiment [1], the EC50 was above 1000 nM. Besides, the IC50 at MEK1 activated ERK1 is 501 to 999 nM.

Consider `C=CC(=O)Nc1cc(OC)ccc1Nc1nc(Nc2cc(Cl)nc(OC)c2)ncc1Cl` [Compound I-245, N-(2-((5-chloro-2-((2-chloro-6-methoxypyridin-4-yl)amino)pyrimidin-4-yl)amino)-5-methoxyphenyl)acrylamide], for which, at MEK1 activated ERK1, the IC50 was in the range of 101 to 500 nM. In experiment [2], this compound returned a GI50 of 101 to 500 nM.

`C=CC(=O)Nc1ccccc1Nc1nc(Nc2cc(OC)nc(OC)c2)ncc1C(F)(F)F` [Compound I-95, N-(2-((2-((2,6-Dimethoxypyridin-4-yl)amino)-5-(trifluoromethyl)pyrimidin-4-yl)amino)phenyl)acrylamide] showed a GI50 in experiment [2] below 100 nM.

As to `C=CC(=O)Nc1cc(C)ccc1Nc1nc(Nc2ccnc(F)c2)ncc1C(F)(F)F` [Compound I-288, N-(2-((2-((2-Fluoropyridin-4-yl)amino)-5-(trifluoromethyl)pyrimidin-4-yl)amino)-5-methylphenyl)acrylamide], in experiment [1], the EC50 is 101 to 500 nM. In addition, at MEK1 activated ERK1, the IC50 was 501 to 999 nM.

On to `C=CC(=O)Nc1ccccc1Nc1nc(N[C@H]2CCN(C(=O)CO)C2)ncc1C(F)(F)F` [Compound I-57, (S)—N-(2-((2-((1-(2-Hydroxyacetyl)pyrrolidin-3-yl)amino)-5-(trifluoromethyl)pyrimidin-4-yl)amino)phenyl)acrylamide], for which the IC50 at MEK1 activated ERK1 lay in the range of 101 to 500 nM. This compound also yielded a GI50 in experiment [2] of 101 to 500 nM.

As to `C=CC(=O)Nc1cc(C)ccc1Nc1nc(Nc2cc(C(N)=O)ccn2)ncc1Cl` [Compound I-238, 2-((4-((2-acrylamido-4-methylphenyl)amino)-5-chloropyrimidin-2-yl)amino)isonicotinamide], the concentration for half-maximal inhibition (IC50) at MEK1 activated ERK1 fell in the range of 101 to 500 nM. This compound showed a GI50 in experiment [2] of 101 to 500 nM.

As to `C=CC(=O)Nc1ccccc1Nc1nc(N[C@H]2CCCN(C(C)=O)C2)ncc1Cl` [Compound I-115, (S)—N-(2-((2-((1-acetylpiperidin-3-yl)amino)-5-chloropyrimidin-4-yl)amino)phenyl)acrylamide], the IC50 at MEK1 activated ERK1 is below 100 nM. The GI50 in experiment [2] was below 100 nM.

Take `C=CC(=O)Nc1ccccc1Nc1nc(N[C@@H]2CCN(C(C)=O)C2)ncc1C(F)(F)F` [Compound I-60, (R)—N-(2-((2-((1-Acetylpyrrolidin-3-yl)amino)-5-(trifluoromethyl)pyrimidin-4-yl)amino)phenyl)acrylamide]: on MEK1 activated ERK1, the IC50 fell in the range of 501 to 999 nM. The compound further displayed a GI50 in experiment [2] above 1000 nM.

`C=CC(=O)Nc1cc(C)ccc1Nc1nc(Nc2cc(OC)nc(N3CCOCC3)c2)ncc1C(F)(F)F` [Compound I-94, N-(2-((2-((2-Methoxy-6-morpholinopyridin-4-yl)amino)-5-(trifluoromethyl)pyrimidin-4-yl)amino)-5-methylphenyl)acrylamide]: the IC50 on MEK1 activated ERK1 is 101 to 500 nM. In experiment [2], the GI50 was below 100 nM.

With `C=CC(=O)Nc1ccccc1Nc1nc(N[C@H]2CCN(C(=O)OC)C2)ncc1C(F)(F)F` [Compound I-59, (S)-methyl 3-((4-((2-Acrylamidophenyl)amino)-5-(trifluoromethyl)pyrimidin-2-yl)amino)pyrrolidine-1-carboxylate], the IC50 on MEK1 activated ERK1 was in the range of 501 to 999 nM. The same compound yielded a GI50 in experiment [2] of 101 to 500 nM.

In experiment [2], `C=CC(=O)Nc1cc(C)ccc1Nc1nc(N[C@H]2CCCN(C(=O)CO)C2)ncc1Cl` [Compound I-140, (S)—N-(2-((5-chloro-2-((1-(2-hydroxyacetyl)piperidin-3-yl)amino)pyrimidin-4-yl)amino)-5-methylphenyl)acrylamide] returned a GI50 below 100 nM.

`C=CC(=O)Nc1ccccc1Nc1nc(Nc2cc(C(N)=O)ccc2C)ncc1C(F)(F)F` [Compound I-68, 3-(4-(2-Acrylamidophenylamino)-5-(trifluoromethyl)pyrimidin-2-ylamino)-4-methylbenzamide] showed a GI50 in experiment [2] below 100 nM.

In experiment [2], `C=CC(=O)Nc1cc(OC)ccc1Nc1nc(N[C@H]2CCCN(C(=O)CO)C2)ncc1C(F)(F)F` [Compound I-64, (S)—N-(2-((2-((1-(2-Hydroxyacetyl)piperidin-3-yl)amino)-5-(trifluoromethyl)pyrimidin-4-yl)amino)-5-methoxyphenyl)acrylamide] yielded a GI50 below 100 nM.

Regarding `C=CC(=O)Nc1ccccc1Nc1nc(Nc2cc(Cl)nc(OC)c2)ncc1Cl` [Compound I-246, N-(2-((5-chloro-2-((2-chloro-6-methoxypyridin-4-yl)amino)pyrimidin-4-yl)amino)phenyl)acrylamide], the IC50 on MEK1 activated ERK1 was in the range of 101 to 500 nM. The same compound had a GI50 in experiment [2] below 100 nM.

`C=CC(=O)Nc1cc(C)ccc1Nc1nc(Nc2cc(C)nc(OC)c2)ncc1C(F)(F)F` [Compound I-295, N-(2-((2-((2-methoxy-6-methylpyridin-4-yl)amino)-5-(trifluoromethyl)pyrimidin-4-yl)amino)-5-methylphenyl)acrylamide]: the EC50 in experiment [1] is below 100 nM. The IC50 at MEK1 activated ERK1 was in the range of 101 to 500 nM.

On to `C=CC(=O)Nc1cc(OC)ccc1Nc1nc(Nc2cc(OC)nc(N3CCN(CC)CC3)c2)ncc1C(F)(F)F` [Compound I-88, N-(2-((2-((2-(4-Ethylpiperazin-1-yl)-6-methoxypyridin-4-yl)amino)-5-(trifluoromethyl)pyrimidin-4-yl)amino)-5-methoxyphenyl)acrylamide], for which the GI50 in experiment [2] is below 100 nM.

Take `C=CC(=O)Nc1cc(C)ccc1Nc1nc(Nc2cc(OC)ccc2C)ncc1C(F)(F)F` [Compound I-341, N-(2-((2-((5-methoxy-2-methylphenyl)amino)-5-(trifluoromethyl)pyrimidin-4-yl)amino)-5-methylphenyl)acrylamide]: the EC50 in experiment [1] was above 1000 nM. On MEK1 activated ERK1, the IC50 lay in the range of 501 to 999 nM.
